Experimental data reported in article PMC7766697, “Toxicological Screening of Four Bioactive Citroflavonoids: In Vitro, In Vivo, and In Silico Approaches” (Molecules, 2020).
Read-outs that look alike come from different tables or passages of the source.

Legend:
VERO cells = experiment: MTT-based cytotoxicity assay in VERO cells; assay type: cell-based, green Monkey; conditions: 48 h, 125 to 750 µg/mL (QRT effect at 250–750 µg/mL)
Procedure: (§1) VERO and MDCK cell lines were acquired from American Type Culture Collection (ATCC, Manassas, VA, USA). […] In vitro cytotoxicity assay was performed on Madin-Darby Canine Kidney Epithelial Cells (MDCK) and green Monkey Kidney Cells (VERO) by MTT-based assay. Briefly, cells were seeded in 96-well plates at a density of 2.5 × 10^3 cells/well. […] The absorbance was measured after 45 min using a microplate reader (Multiskan Asent®) at a wavelength of 550 nm. The criteria for categorizing cytotoxicity against MDCK and VERO cells are based on the U.S. National Cancer Institute (NCI). The criteria comprise as follow: […] All results were expressed as mean ± standard error. The results from the in vivo and in vitro experiments were analyzed using software Origin® 8.0. […] The IC50 (half inhibitory concentration) values were calculated in Origin software®, (Northampton, MA, USA) and one-way ANOVA analysis was compared with cisplatin as the control.

MDCK cells = experiment: MTT-based cytotoxicity assay in MDCK cells; assay type: cell-based, Canine; conditions: 48 h, 125 to 750 µg/mL (QRT effect at 250 and 500 µg/mL)
Procedure: as §1

Wistar rats [1] = experiment: Acute oral toxicity, OECD Test No. 423 (mortality, signs, LD50, body weight); assay type: in vivo; conditions: oral, 14 days
Procedure: Female Wistar rats (250 g b.w.) were used. These animals were obtained from Bioterium from División de Ciencias de la Salud at the Universidad de Quintana Roo. They were maintained under standard environmental conditions (22 ± 3 °C, 12 h/12 h light/dark cycle), and free access to standard rodent diet and water ad libitum. All animal procedures were conducted under our Federal Regulations for Animal Experimentation and Care and were approved by the Institutional Animal Care and Use Committee of the “Universidad Juárez Autónoma de Tabasco” university (Code:2017-001, Approved: October 2017). Rats were acclimatized for 1 week before the start of experimental procedures.
The half lethal dose (LD50) was estimated using the fixed-dose method described in OECD Guidelines for the Testing of Chemicals (Test No. 423: Acute Oral Toxicity-Class Method; OECD, 2001). […] This method allowed a step-by-step assay according to the chosen dose to begin the experiment. Subsequently, depending on the presence or absence of mortality, the decision to continue within the next step is taken, so fewer experimental animals should be used.
(§2) Rats used for this experiment were fasted for 8 h and were organized into two groups of three rats for each dose and each flavonoid. Likewise, the control group received isotonic 0.9% sodium chloride solution (dose: 5 mL/kg). All rats were closely observed for toxic symptoms and behavioral changes (sedation, hyperactivity, writhing, pruritus, feeding and drinking habits, general morphological changes, and bite legs) for 30 min and periodically 24 h post-administration. Animals were observed daily (14 days) and mortality rate recorded. A LD50 was estimated according to criteria of OECD guide 423.
The rats’ body weight in each group was determined and recorded before the treatment initiation and after 14 days. Changes in the body weight at the end of the 14 days were calculated. Once observation time was completed and to detect any adverse effect, blood samples were collected by cardiac puncture after the previous fasting of 8 h. […] In addition, organ weight was determined.

Wistar rats [2] = conditions: for ALB (albumin) / ALT / AST / DB (direct bilirubin) / GL (globulin) / GLU (glucose) / IB (indirect bilirubin) / TB (total bilirubin) / TP (total protein): rat, in vivo, po; for ALB/GL Ratio: rats, after 14 days, plasma
panel of five cell lines = tested on: panel of five cell lines; design: method as in PMID 28662177; conditions: 5–50 µg/mL; cited from earlier work
Wistar rats [3] = assay type: in vivo; conditions: rat, in vivo, po
Procedure: as §2
The rats’ body weight in each group was determined and recorded before the treatment initiation and after 14 days. Changes in the body weight at the end of the 14 days were calculated. Once observation time was completed and to detect any adverse effect, blood samples were collected by cardiac puncture after the previous fasting of 8 h. For this purpose, rats were anesthetized by intraperitoneally 50 mg/kg sodium pentobarbital. The liver was carefully extracted, rinsed in normal saline, drained on blotting paper, and carefully examined for tissue lesions. In addition, organ weight was determined.
Rat blood samples were analyzed by a hematology auto-analyzer system (Sysmex XS-1000i®, SYSMEX®, Oak Ridge, TN, USA). The parameters quantified on this stage were: blood count-packed cell volume (PCV), red blood cell (RBC) count, hemoglobin (Hb), platelet count, white blood cell (WBC) count, mean cell hemoglobin concentration (MCHC), mean red cell volume (MCV), mean cell hemoglobin (MCH), prothrombin time (PT), and activated partial thromboplastin time (aPTT).

C[C@@H]1O[C@@H](O[C@H]2[C@H](Oc3cc(O)c4c(c3)O[C@H](c3ccc(O)cc3)CC4=O)O[C@H](CO)[C@@H](O)[C@@H]2O)[C@H](O)[C@H](O)[C@H]1O [NAR, naringin]
percentage viability / growth of cells (VERO cells): did not change the percentage of growth | percentage viability / growth of cells (MDCK cells): did not change the percentage of growth | weight gain / body weight vs control (Wistar rats [1]): changed the body weight | ALB (albumin) (Wistar rats [2]; 300 mg/kg): 4.50 ± 0.02 g/dL | ALT (Wistar rats [2]; 300 mg/kg): 27.57 ± 0.62 IU/L | AST (Wistar rats [2]; 300 mg/kg): 144.58 ± 17.05 IU/L | DB (direct bilirubin) (Wistar rats [2]; 300 mg/kg): 0.012 ± 0.0009 mg/dL | GL (globulin) (Wistar rats [2]; 300 mg/kg): 1.97 ± 0.04 g/dL | GLU (glucose) (Wistar rats [2]; 300 mg/kg): 125.54 ± 14.59 mg/dL | IB (indirect bilirubin) (Wistar rats [2]; 300 mg/kg): 0.024 ± 0.0007 mg/dL | TB (total bilirubin) (Wistar rats [2]; 300 mg/kg): 0.037 ± 0.001 mg/dL | TP (total protein) (Wistar rats [2]; 300 mg/kg): 6.48 ± 0.04 g/dL | ALB (albumin) (Wistar rats [2]; 2000 mg/kg): 4.66 ± 0.16 g/dL | ALT (Wistar rats [2]; 2000 mg/kg): 38.59 ± 1.08 IU/L | AST (Wistar rats [2]; 2000 mg/kg): 128.26 ± 5.33 IU/L | DB (direct bilirubin) (Wistar rats [2]; 2000 mg/kg): 0.015 ± 0.001 mg/dL | GL (globulin) (Wistar rats [2]; 2000 mg/kg): 2.03 ± 0.05 g/dL | GLU (glucose) (Wistar rats [2]; 2000 mg/kg): 138.55 ± 10.48 mg/dL | IB (indirect bilirubin) (Wistar rats [2]; 2000 mg/kg): 0.025 ± 0.003 mg/dL | TB (total bilirubin) (Wistar rats [2]; 2000 mg/kg): 0.039 ± 0.004 mg/dL | TP (total protein) (Wistar rats [2]; 2000 mg/kg): 6.71 ± 0.14 g/dL | ALB/GL Ratio (Wistar rats [2]; oral 300 mg/kg): 2.30 ± 0.05 | ALB/GL Ratio (Wistar rats [2]; oral 2000 mg/kg): 2.32 ± 0.12 | cytotoxicity (mitochondrial membrane potential, cell membrane integrity, nuclear morphology) (panel of five cell lines): not cytotoxic | Erythrocytes (Wistar rats [3]; 300 mg/kg): 7.79±0.27 106/µL | Hb (Wistar rats [3]; 300 mg/kg): 14.03 ± 0.38 g/dL | Hto (Wistar rats [3]; 300 mg/kg): 40.63±1.03% | Leukocytes (Wistar rats [3]; 300 mg/kg): 2.65±0.30 103/µL | MCH (Wistar rats [3]; 300 mg/kg): 18.03 ± 0.16 pg | MCV (Wistar rats [3]; 300 mg/kg): 54.40 ± 1.92 fL | Platelets (Wistar rats [3]; 300 mg/kg): 726.00±12.26 105/µL | RBCDW (Wistar rats [3]; 300 mg/kg): 16.16±0.58% | Erythrocytes (Wistar rats [3]; 2000 mg/kg): 7.41±0.11 106/µL | Hb (Wistar rats [3]; 2000 mg/kg): 13.67 ± 0.16 g/dL | Hto (Wistar rats [3]; 2000 mg/kg): 40.66±0.39% | Leukocytes (Wistar rats [3]; 2000 mg/kg): 4.45±0.98 103/µL | MCH (Wistar rats [3]; 2000 mg/kg): 18.43 ± 0.05 pg | MCHC (Wistar rats [3]; 2000 mg/kg): 33.50 ± 0.14 g/dL | MCV (Wistar rats [3]; 2000 mg/kg): 54.86 ± 0.38 fL | Platelets (Wistar rats [3]; 2000 mg/kg): 553.00±239.61 105/µL | RBCDW (Wistar rats [3]; 2000 mg/kg): 15.80±0.12%
